Among the test systems are 786-0 renal; ACHN renal; BT-549 breast; CCRF-CEM leukemia; HOP-92 NSCLC; HT29 colon; MDA-N; SN12C renal; HOP-62 NSCLC; OVCAR-3 ovarian; SF-295 CNS.
What all share (assay): growth of human tumour cells (NCI), 48 h

Several values for one entry are separate records, joined by “and”; a condition that tells them apart may be missing. Identical values can stand only once.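 Where inhibition never reached the appropriate level, the endpoint shown equals the highest concentration tested. Otherwise, values were interpolated linearly from a five-concentration, 48-hour dose response in 96-well plates. Abbreviation: GI50, concentration required for 50% inhibition of growth. At the TGI there is no net growth.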 Where a SMILES comes first, the peptide text is derived from it. [ ]: non-standard residue; d: D form. The star is where a group is joined. ξ: configuration not given here. NMeY = CN[C@@H](Cc1ccc(O)cc1)C(=O)O; Cbz = O=C(OCc1ccccc1)*; ξA = CC(N)C(=O)O

For the molecule `C/C(=N\N=C(N)N)c1c(C(=O)OCCCCCCOC(=O)c2nc3sccn3c2/C(C)=N/N=C(N)N)nc2sccn12`, the TGI in the experiment on 786-0 renal is over 100 µM; in the experiment on ACHN renal it was over 100 µM; in the experiment with BT-549 breast, over 100 µM; in the experiment with CCRF-CEM leukemia, 63.2 µM; in the experiment on HOP-92 NSCLC, over 100 µM; in the experiment with HT29 colon it was over 100 µM. In addition, the TGI in the experiment on MDA-N and with SN12C renal was over 100 µM in each case.
Consider `COC(=O)Cc1c(C2=Nc3ccccc3C2(O)CC(=O)OC)[nH]c2ccccc12` (configuration not stated), for which the TGI in the experiment with 786-0 renal is over 100 µM; with ACHN renal, over 100 µM; with BT-549 breast, over 100 µM; in the experiment with CCRF-CEM leukemia, 54.5 µM; in the experiment with HOP-62 NSCLC it was over 100 µM; in the experiment with HOP-92 NSCLC it was over 100 µM. Besides, the TGI in the experiment on HT29 colon, in the experiment on MDA-N, with OVCAR-3 ovarian, in the experiment on SF-295 CNS and with SN12C renal was over 100 µM in each case.
Turning to `O=C(C[C@@H]1NCCC[C@H]1O)Cn1cnc2cc(Br)c(Cl)cc2c1=O`, the TGI is 0.135 µM in the experiment with 786-0 renal; 1.21 µM with ACHN renal; 0.259 µM with BT-549 breast; over 100 µM with CCRF-CEM leukemia; 1.01 µM in the experiment on HOP-62 NSCLC; 0.11 µM with HOP-92 NSCLC. Also, the TGI in the experiment on HT29 colon was found to be 0.191 µM; with MDA-N, 0.0881 µM; in the experiment with OVCAR-3 ovarian, 0.9 µM; in the experiment with SF-295 CNS it was 0.337 µM; in the experiment with SN12C renal it was 0.0726 µM.
`Cc1ccc(Nc2nc(=O)[nH]c(=O)[nH]2)cc1N`: the TGI with 786-0 renal, in the experiment on ACHN renal, with BT-549 breast, in the experiment with CCRF-CEM leukemia, in the experiment on HOP-62 NSCLC and in the experiment on HOP-92 NSCLC was over 100 µM each time. Besides, the TGI with HT29 colon, in the experiment on MDA-N, with OVCAR-3 ovarian, with SF-295 CNS and in the experiment on SN12C renal was over 100 µM each time.
For `COc1ccc(C[C@@H](C(=O)NCC(N)=O)N(C)C(=O)[C@@H]2CCCN2C(=O)[C@H](CC(C)C)NC(=O)C(C)NC(=O)OCc2ccccc2)cc1` (some centres not stated) (Cbz-[ξA]LP[NMeY](Me)G-NH2), the TGI in the experiment with 786-0 renal, in the experiment with ACHN renal, with BT-549 breast, with CCRF-CEM leukemia, with HOP-62 NSCLC and with HOP-92 NSCLC was over 100 µM in each case. In addition, the TGI in the experiment with HT29 colon, in the experiment on MDA-N, in the experiment on OVCAR-3 ovarian, in the experiment on SF-295 CNS and in the experiment on SN12C renal was over 100 µM each time.
Turning to `Oc1ccc2ccccc2c1-c1nnc(CCCCCCCCc2nnc(-c3c(O)ccc4ccccc34)o2)o1`, the TGI in the experiment on 786-0 renal was 8.94 µM and 30.9 µM; in the experiment with ACHN renal, 25 µM and > 55.3 µM; with BT-549 breast, over 100 µM; with CCRF-CEM leukemia it was over 60.3 µM; in the experiment on HOP-62 NSCLC, > 25 µM and 12.4 µM; in the experiment on HOP-92 NSCLC, over 79 µM. Also, the TGI in the experiment with SF-295 CNS was 25 µM and > 93.6 µM. In addition, the GI50 is 1.28 µM with ACHN renal; over 25 µM in the experiment on HOP-62 NSCLC; 0.36 µM in the experiment with HT29 colon; 2.67 µM in the experiment on MDA-N; 0.135 µM with OVCAR-3 ovarian; 2.83 µM in the experiment with SF-295 CNS. The GI50 in the experiment with SN12C renal is 0.428 µM.
In the case of `O=C1/C(=C/c2ccccc2S)N=C(c2ccccc2)N1c1ccc2c(c1)Sc1cc(N3C(=O)/C(=C/c4ccccc4S)N=C3c3ccccc3)ccc1N2`, the TGI in the experiment on 786-0 renal amounted to 46.4 µM; in the experiment on ACHN renal, 33.5 µM; with BT-549 breast, 73.5 µM; in the experiment with CCRF-CEM leukemia it was 33.3 µM; with HOP-62 NSCLC, 72.7 µM; in the experiment with HOP-92 NSCLC it was 34.5 µM. Also, the TGI with HT29 colon was over 100 µM; in the experiment on MDA-N, 51.3 µM; in the experiment with OVCAR-3 ovarian, 38.1 µM; in the experiment with SF-295 CNS, 39.9 µM; with SN12C renal it was 34.3 µM.
With `CCOC(=O)CCC(NC(=O)OCc1ccccc1)C(=O)NNC(=O)OC(C)(C)C` (configuration not stated), the TGI in the experiment on 786-0 renal, in the experiment on ACHN renal, in the experiment on BT-549 breast, in the experiment with CCRF-CEM leukemia, in the experiment with HOP-62 NSCLC and in the experiment with HOP-92 NSCLC was over 100 µM in each case. The TGI in the experiment with HT29 colon, with MDA-N, in the experiment on OVCAR-3 ovarian, with SF-295 CNS and with SN12C renal was over 100 µM throughout.
With `CCOC(=O)c1cc(-c2ccc(OC)c(OC)c2)c[nH]1`, the TGI in the experiment with 786-0 renal, in the experiment with ACHN renal, in the experiment with BT-549 breast, in the experiment on CCRF-CEM leukemia, with HOP-62 NSCLC and in the experiment on HOP-92 NSCLC was over 10 µM throughout. For the same molecule, the TGI in the experiment on HT29 colon, in the experiment with MDA-N, in the experiment on OVCAR-3 ovarian, with SF-295 CNS and in the experiment on SN12C renal was over 10 µM each time.
For `Cc1ccc(-c2cc(-c3ccc(Cl)cc3)nc(/N=C3\C(=O)N(CN4CCCCC4)c4ccc(Cl)cc43)n2)cc1`, the TGI was 44.6 µM in the experiment with 786-0 renal; 92.5 µM in the experiment on ACHN renal; over 100 µM in the experiment on BT-549 breast; over 100 µM in the experiment on CCRF-CEM leukemia; 98.2 µM with HOP-62 NSCLC; 51.2 µM with HOP-92 NSCLC. Besides, the TGI was over 100 µM with HT29 colon; 46.2 µM with MDA-N; over 100 µM with OVCAR-3 ovarian; over 100 µM in the experiment with SF-295 CNS; 62.3 µM in the experiment with SN12C renal.
On to `Cc1[nH]c(=O)nc(N/N=C/c2ccc(Cl)c(Cl)c2)c1C(=O)Nc1ccc(Cl)c(Cl)c1`, for which the TGI is over 39 µM with 786-0 renal; over 53.1 µM in the experiment on ACHN renal; 39.7 µM with BT-549 breast; over 23 µM in the experiment with CCRF-CEM leukemia; 24.8 µM in the experiment with HOP-62 NSCLC; 39.3 µM in the experiment with HOP-92 NSCLC. Moreover, the TGI with HT29 colon was over 46.5 µM; in the experiment with MDA-N it was 39.7 µM; with OVCAR-3 ovarian it was 24.5 µM; in the experiment on SF-295 CNS, over 30.7 µM; in the experiment with SN12C renal, over 46.5 µM.
On to `O=S1(=O)NNC(=NCc2ccc(F)cc2)c2ccccc21`, for which the TGI with 786-0 renal was over 100 µM; in the experiment with ACHN renal, over 100 µM; in the experiment with BT-549 breast, over 100 µM; in the experiment with CCRF-CEM leukemia it was over 72.7 µM; in the experiment on HOP-62 NSCLC it was over 100 µM; with HOP-92 NSCLC, over 83.5 µM. The TGI in the experiment on HT29 colon, in the experiment on MDA-N, in the experiment on OVCAR-3 ovarian, in the experiment with SF-295 CNS and in the experiment with SN12C renal was over 100 µM in each case.

The record behind these values is PubChem BioAssay (NCI).
